For two compounds, Ki results are on record in ChEMBL document CHEMBL1127255, “Synthesis of the benzofuran analogue of ILV, a new protein kinase C (PKC) activator” (Bioorg Med Chem Lett, 1994).

One may read the Ki as the dissociation constant of the complex between target and ligand, obtained from inhibition or displacement. Read a low Ki as higher affinity.

This test concerns the target Protein kinase C alpha type (Homo sapiens, UniProt P17252). Briefly: Displacement of [3H]PDBu from PKC alpha expressed in Sf9 cells.

Structures are written as SMILES.

Turning to `CC(C)[C@H]1C(=O)N[C@H](CO)Cc2coc3cccc(c23)N1C`, the affinity corresponds to a Ki of 17.3 nM.
`CC(C)[C@H]1C(=O)N[C@H](CO)Cc2c[nH]c3cccc(c23)N1C` [INDOLACTUM] showed a Ki of 11 nM.
